In ChEMBL document CHEMBL1201862, “PubChem BioAssay data set” (2004):
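Grown in 96-well plates, cells were treated for 48 hours with each compound at five concentrations. Insufficient inhibition: endpoint recorded as highest concentration tested. GI50 marks 50% less growth.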 Activity calls are given as the source filed them. Rule as the data show it: active = GI50 up to about 1.1 µM and inactive = higher.

Experiments:
Test in all cases: inhibition of tumour cell growth, NCI panel, 48 h
[1] = test system: UACC-62
[2] = test system: BT-549
[3] = test system: SNB-19
[4] = test system: NCI/ADR-RES
[5] = test system: PC-3
[6] = test system: UO-31
[7] = test system: HOP-92
[8] = test system: SF-295
[9] = test system: OVCAR-5
[10] = test system: MCF7
[11] = test system: SN12C
[12] = test system: HCT-15
[13] = test system: K562
[14] = test system: OVCAR-4
[15] = test system: HT-29
[16] = test system: TK-10
[17] = test system: HCT-116
[18] = test system: KM12
[19] = test system: OVCAR-8
[20] = test system: HL-60
[21] = test system: SK-MEL-28
[22] = test system: LOX IMVI
[23] = test system: T47D
[24] = test system: SK-MEL-2
[25] = test system: Malme-3M
[26] = test system: MDA-MB-435
[27] = test system: SF-268
[28] = test system: COLO 205
[29] = test system: SNB-75
[30] = test system: EKVX
[31] = test system: NCI-H460
[32] = test system: NCI-H23
[33] = test system: HOP-62
[34] = test system: OVCAR-3
[35] = test system: CAKI-1
[36] = test system: SR
[37] = test system: IGROV-1
[38] = test system: NCI-H226
[39] = test system: CCRF-CEM
[40] = test system: Hs-578T
[41] = test system: SK-MEL-5
[42] = test system: A498
[43] = test system: U-251
[44] = test system: SK-OV-3
[45] = test system: MOLT-4
[46] = test system: A549
[47] = test system: M14
[48] = test system: RPMI-8226
[49] = test system: SW-620
[50] = test system: DU-145
[51] = test system: MDA-MB-231
[52] = test system: MDA-N
[53] = test system: ACHN
[54] = test system: NCI-H522
[55] = test system: SF-539
[56] = test system: 786-0
[57] = test system: RXF 393
[58] = test system: UACC-257
[59] = test system: HCC 2998

[O-][N+]1(CC[N+]2([O-])CCCCC2)CCCCC1
GI50 [1]: > 100 µM (inactive)
GI50 [2]: > 100 µM (inactive)
GI50 [3]: > 100 µM (inactive)
GI50 [4]: > 100 µM (inactive)
GI50 [5]: > 100 µM (inactive)
GI50 [6]: > 100 µM (inactive)
GI50 [7]: > 100 µM (inactive)
GI50 [8]: > 100 µM (inactive)
GI50 [9]: > 100 µM (inactive)
GI50 [10]: > 100 µM (inactive)
GI50 [11]: > 100 µM (inactive)
GI50 [12]: > 100 µM
GI50 [13]: > 100 µM (inactive)
GI50 [14]: > 100 µM (inactive)
GI50 [15]: > 100 µM (inactive)
GI50 [16]: > 100 µM (inactive)
GI50 [17]: > 100 µM (inactive)
GI50 [18]: > 100 µM (inactive)
GI50 [19]: > 100 µM (inactive)
GI50 [20]: > 100 µM (inactive)
GI50 [21]: > 100 µM (inactive)
GI50 [22]: > 100 µM (inactive)
GI50 [23]: > 100 µM (inactive)
GI50 [24]: > 100 µM (inactive)
GI50 [25]: > 100 µM (inactive)
GI50 [26]: > 100 µM (inactive)
GI50 [27]: > 100 µM (inactive)
GI50 [28]: > 100 µM (inactive)
GI50 [29]: > 100 µM (inactive)
GI50 [30]: > 100 µM (inactive)
GI50 [31]: > 100 µM (inactive)
GI50 [32]: > 100 µM (inactive)
GI50 [33]: > 100 µM (inactive)
GI50 [34]: > 100 µM (inactive)
GI50 [35]: > 100 µM (inactive)
GI50 [36]: > 100 µM (inactive)
GI50 [37]: > 100 µM (inactive)
GI50 [38]: > 100 µM (inactive)
GI50 [39]: > 100 µM (inactive)
GI50 [40]: > 100 µM (inactive)
GI50 [41]: > 100 µM (inactive)
GI50 [42]: > 100 µM (inactive)
GI50 [43]: > 100 µM (inactive)
GI50 [44]: > 100 µM (inactive)
GI50 [45]: > 100 µM (inactive)
GI50 [46]: > 100 µM (inactive)
GI50 [47]: > 100 µM (inactive)
GI50 [48]: > 100 µM (inactive)
GI50 [49]: > 100 µM (inactive)
GI50 [50]: > 100 µM (inactive)
GI50 [51]: > 100 µM (inactive)
GI50 [52]: > 100 µM (inactive)
GI50 [53]: > 100 µM (inactive)
GI50 [54]: > 100 µM (inactive)
GI50 [55]: > 100 µM (inactive)
GI50 [56]: > 100 µM (inactive)
GI50 [57]: > 100 µM (inactive)

CN(C)CCOc1ccc(I)cc1Cc1ccccc1
GI50 [1]: 3.28 µM (inactive)
GI50 [2]: 14 µM (inactive)
GI50 [3]: 13.7 µM (inactive)
GI50 [4]: 13.8 µM (inactive)
GI50 [5]: 8.28 µM (inactive)
GI50 [6]: 7.69 µM (inactive)
GI50 [8]: 15.4 µM (inactive)
GI50 [9]: 14.7 µM (inactive)
GI50 [10]: 13 µM (inactive)
GI50 [11]: 12.1 µM (inactive)
GI50 [58]: 15.2 µM (inactive)
GI50 [12]: 12.2 µM
GI50 [13]: 3.39 µM (inactive)
GI50 [14]: 11.8 µM (inactive)
GI50 [15]: 4.36 µM (inactive)
GI50 [16]: 12.7 µM (inactive)
GI50 [17]: 10.6 µM (inactive)
GI50 [18]: 13.7 µM (inactive)
GI50 [19]: 16 µM (inactive)
GI50 [20]: 4.74 µM (inactive)
GI50 [21]: 4.74 µM (inactive)
GI50 [22]: 5.2 µM (inactive)
GI50 [23]: 3.81 µM (inactive)
GI50 [24]: 15 µM (inactive)
GI50 [25]: 15.9 µM (inactive)
GI50 [26]: 4.27 µM (inactive)
GI50 [27]: 13.2 µM (inactive)
GI50 [28]: 11.9 µM (inactive)
GI50 [29]: 1.52 µM (inactive)
GI50 [30]: 14.5 µM (inactive)
GI50 [31]: 11.9 µM (inactive)
GI50 [32]: 4.05 µM (inactive)
GI50 [33]: 13.9 µM (inactive)
GI50 [34]: 13.2 µM (inactive)
GI50 [36]: 2.65 µM (inactive)
GI50 [37]: 4.6 µM (inactive)
GI50 [38]: 15.9 µM (inactive)
GI50 [39]: 4.85 µM (inactive)
GI50 [40]: 11.1 µM (inactive)
GI50 [41]: 3.61 µM (inactive)
GI50 [42]: 13.9 µM (inactive)
GI50 [43]: 12.4 µM (inactive)
GI50 [44]: 18.6 µM (inactive)
GI50 [45]: 5.21 µM (inactive)
GI50 [46]: 15.5 µM (inactive)
GI50 [47]: 2.66 µM (inactive)
GI50 [48]: 6.34 µM (inactive)
GI50 [49]: 14.2 µM (inactive)
GI50 [50]: 17.1 µM (inactive)
GI50 [51]: 3.89 µM (inactive)
GI50 [52]: 5.31 µM (inactive)
GI50 [53]: 12.2 µM (inactive)
GI50 [59]: 3.29 µM (inactive)
GI50 [54]: 11.9 µM (inactive)
GI50 [55]: 13.8 µM (inactive)
GI50 [56]: 10.7 µM (inactive)
GI50 [57]: 15 µM (inactive)

COc1ccc([C@H]2CC(=O)C[C@H](c3ccc(OC)cc3OC)C23C(=O)c2ccccc2C3=O)c(OC)c1
GI50 [1]: > 100 µM (inactive)
GI50 [2]: > 100 µM (inactive)
GI50 [3]: > 100 µM (inactive)
GI50 [4]: > 100 µM (inactive)
GI50 [5]: > 100 µM (inactive)
GI50 [6]: > 100 µM (inactive)
GI50 [7]: 27.3 µM (inactive)
GI50 [8]: > 100 µM (inactive)
GI50 [9]: > 100 µM (inactive)
GI50 [10]: > 100 µM (inactive)
GI50 [11]: > 100 µM (inactive)
GI50 [58]: > 100 µM (inactive)
GI50 [12]: > 100 µM
GI50 [13]: > 100 µM (inactive)
GI50 [14]: > 100 µM (inactive)
GI50 [15]: > 100 µM (inactive)
GI50 [16]: > 100 µM (inactive)
GI50 [17]: > 100 µM (inactive)
GI50 [18]: > 100 µM (inactive)
GI50 [19]: 99.5 µM (inactive)
GI50 [20]: > 100 µM (inactive)
GI50 [21]: > 100 µM (inactive)
GI50 [22]: 65 µM (inactive)
GI50 [23]: > 100 µM (inactive)
GI50 [24]: > 100 µM (inactive)
GI50 [25]: > 100 µM (inactive)
GI50 [26]: > 100 µM (inactive)
GI50 [27]: > 100 µM (inactive)
GI50 [28]: > 100 µM (inactive)
GI50 [29]: 26.9 µM (inactive)
GI50 [30]: > 100 µM (inactive)
GI50 [31]: > 100 µM (inactive)
GI50 [32]: > 100 µM (inactive)
GI50 [33]: > 100 µM (inactive)
GI50 [34]: > 100 µM (inactive)
GI50 [35]: > 100 µM (inactive)
GI50 [36]: > 100 µM (inactive)
GI50 [37]: > 100 µM (inactive)
GI50 [38]: > 100 µM (inactive)
GI50 [39]: > 100 µM (inactive)
GI50 [40]: > 100 µM (inactive)
GI50 [41]: 68.1 µM (inactive)
GI50 [43]: > 100 µM (inactive)
GI50 [44]: > 100 µM (inactive)
GI50 [45]: > 100 µM (inactive)
GI50 [46]: > 100 µM (inactive)
GI50 [47]: > 100 µM (inactive)
GI50 [48]: > 100 µM (inactive)
GI50 [49]: > 100 µM (inactive)
GI50 [50]: > 100 µM (inactive)
GI50 [51]: > 100 µM (inactive)
GI50 [52]: > 100 µM (inactive)
GI50 [53]: > 100 µM (inactive)
GI50 [59]: > 100 µM (inactive)
GI50 [54]: > 100 µM (inactive)
GI50 [55]: > 100 µM (inactive)
GI50 [56]: > 100 µM (inactive)
GI50 [57]: > 100 µM (inactive)
